Values quoted from earlier work in patent US20210022994A1, “SUSTAINED RELEASE TREPOSTINIL-COMPOUND MICROPARTICLE COMPOSITIONS” (Lupin Holdings, B.V., priority 2019, published 2021).

Details: in human plasma

half-life: 2 to 4 h
SMILES: CCCCC[C@H](O)CC[C@@H]1[C@H]2Cc3cccc(OCC(=O)O)c3C[C@H]2C[C@H]1O [treprostinil, (1R,2R,3aS,9aS)-[[2,3,3a,4,9,9a-hexahydro-2-hydroxy-1-[(3S)-3-hydroxyoctyl]-1Hbenz[f]inden-5-yl]oxy]acetic acid]
